Results taken from patent US20260374754A1, “N-((ISOQUINOLIN-6-YL)METHYL)-1H-PYRAZOLE-4-CARBOXAMIDE DERIVATIVES AS PLASMA KALLIKREIN INHIBITORS FOR THE TREATMENT OF HEREDITARY ANGIODEMA” (Takeda Pharmaceutical Company Limited, priority 2022, published 2026).

molecular target: human activated kallikrein enzyme (Homo sapiens, UniProt P03952); test: Inhibition of human activated plasma kallikrein, fluorogenic PFR-AMC substrate, 500 pM enzyme format; type: biochemical; conditions: 500 pM activated kallikrein; 300 μM PFR-AMC; 30 min preincubation; 10 min room temperature; pH 7.5; read-out: Primary Dose Response Assay: Average EC50
Summary of the method: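 500 pM activated kallikrein preincubated 30 min at room temperature with inhibitors in pH 7.5 Tris/EDTA/NaCl buffer with PEG-400 and Triton X-100. Reaction started with 300 μM PFR-AMC, run 10 min at room temperature; AMC fluorescence read at ex 380/em 460 nm.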

human activated kallikrein enzyme, sequence (P03952 391-638 limits assumed): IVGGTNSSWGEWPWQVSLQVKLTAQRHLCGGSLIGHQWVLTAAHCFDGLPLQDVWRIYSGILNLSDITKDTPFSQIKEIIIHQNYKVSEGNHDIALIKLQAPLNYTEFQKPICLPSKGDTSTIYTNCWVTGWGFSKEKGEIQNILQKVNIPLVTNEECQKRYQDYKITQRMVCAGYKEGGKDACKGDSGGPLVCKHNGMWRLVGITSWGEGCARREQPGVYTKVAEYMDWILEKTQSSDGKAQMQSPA
human activated kallikrein enzyme, sequence (P03952 20-390 partner limits assumed): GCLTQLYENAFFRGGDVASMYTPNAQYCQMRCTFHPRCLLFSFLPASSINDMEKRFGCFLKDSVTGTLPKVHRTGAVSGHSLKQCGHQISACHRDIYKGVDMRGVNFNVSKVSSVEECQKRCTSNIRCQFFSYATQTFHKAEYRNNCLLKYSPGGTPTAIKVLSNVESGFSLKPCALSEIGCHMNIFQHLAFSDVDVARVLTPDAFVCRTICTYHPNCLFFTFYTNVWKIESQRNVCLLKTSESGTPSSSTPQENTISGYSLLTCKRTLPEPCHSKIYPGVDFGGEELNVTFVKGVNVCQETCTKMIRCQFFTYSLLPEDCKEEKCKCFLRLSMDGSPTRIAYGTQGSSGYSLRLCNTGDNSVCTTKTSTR

| EC50 [µM] | Structure (SMILES) |
| --- | --- |
| < 0.001 | Cc1cc2c(N)nccc2c(C)c1CNc1cc(NCc2ccc(Cn3ccccc3=O)cc2)ncn1 [Example 237, 1-(4-(((6-(((1-amino-5,7-dimethylisoquinolin-6-yl)methyl)amino)pyrimidin-4-yl)amino)methyl)benzyl)pyridin-2(1H)-one] |
| 0.1 to 1 | Cc1cc2c(Nc3cc(OCc4ccc5ncc(C6CC6)cc5c4)ccn3)nccc2c(C)c1CN [Example 238, 6-(aminomethyl)-N-(4-((3-cyclopropylquinolin-6-yl)methoxy)pyridin-2-yl)-5,7-dimethylisoquinolin-1-amine] |
| 0.001 to 0.01 | Cc1cc2c(N)nccc2c(C)c1CNc1cc(NCc2ccc3c(-c4ccccn4)cccc3c2)ncn1 [Example 241, N4-((1-amino-5,7-dimethylisoquinolin-6-yl)methyl)-N6-((5-(pyridin-2-yl)naphthalen-2-yl)methyl)pyrimidine-4,6-diamine] |
| < 0.001 | Cc1cc2c(N)nccc2c(C)c1CNc1cc(NCc2ccc3c(-n4ccccc4=O)cccc3c2)ncn1 [Example 245, 1-(6-(((6-(((1-amino-5,7-dimethylisoquinolin-6-yl)methyl)amino)pyrimidin-4-yl)amino)methyl)naphthalen-1-yl)pyridin-2(1H)-one] |
| < 0.001 | Cc1cc2c(N)nccc2c(C)c1CNc1cc(NCc2ccc3c(-n4cccn4)cccc3c2)ncn1 [Example 246, N4-((5-(1H-pyrazol-1-yl)naphthalen-2-yl)methyl)-N6-((1-amino-5,7-dimethylisoquinolin-6-yl)methyl)pyrimidine-4,6-diamine] |
| 0.001 to 0.01 | CC(=O)Nc1nccc2cc(C)c(CNc3cc(NCc4ccc(Cn5ccccc5=O)cc4)ncn3)c(C)c12 [Example 247, N-(6,8-dimethyl-7-(((6-((4-((2-oxopyridin-1(2H)-yl)methyl)benzyl)amino)pyrimidin-4-yl)amino)methyl)isoquinolin-1-yl)acetamide] |
| 0.001 to 0.01 | Cc1cc2ccnc(NC(=O)OCc3ccccc3)c2c(C)c1CNc1cc(NCc2ccc(Cn3ccccc3=O)cc2)ncn1 [Example 248, benzyl (6,8-dimethyl-7-(((6-((4-((2-oxopyridin-1(2H)-yl)methyl)benzyl)amino)pyrimidin-4-yl)amino)methyl)isoquinolin-1-yl)carbamate] |
| 0.01 to 0.1 | CCOC(=O)Nc1nccc2c(C)c(CNc3cc(NCc4ccc(Cn5ccccc5=O)cc4)ncn3)c(C)cc12 [Example 249, ethyl (5,7-dimethyl-6-(((6-((4-((2-oxopyridin-1(2H)-yl)methyl)benzyl)amino)pyrimidin-4-yl)amino)methyl)isoquinolin-1-yl)carbamate] |
| 0.01 to 0.1 | Cc1cc2c(N)nccc2c(C)c1CNc1cc(OCc2ccc3ccccc3c2)cnn1 [Example 252, 5,7-dimethyl-6-(((5-(naphthalen-2-ylmethoxy)pyridazin-3-yl)amino)methyl)isoquinolin-1-amine] |
| 0.1 to 1 | Cc1cc2c(N)nccc2c(C)c1CNc1nccc2nnn(Cc3cn4cc(C5CC5)ccc4n3)c12 [Example 253, 6-(((3-((6-cyclopropylimidazo[1,2-a]pyridin-2-yl)methyl)-3H-[1,2,3]triazolo[4,5-c]pyridin-4-yl)amino)methyl)-5,7-dimethylisoquinolin-1-amine] |
| > 1 | Cc1cc2c(N)nccc2c(C)c1CNc1nccc2c1nnn2Cc1cn2cc(C3CC3)ccc2n1 [Example 254, 6-(((1-((6-cyclopropylimidazo[1,2-a]pyridin-2-yl)methyl)-1H-[1,2,3]triazolo[4,5-c]pyridin-4-yl)amino)methyl)-5,7-dimethylisoquinolin-1-amine] |
| 0.1 to 1 | Cc1c(CN)c(C2(C)CC2)cc2c(Nc3cc(OCc4cn5cc(C6CC6)ccc5n4)ncn3)nccc12 [Example 255, 6-(aminomethyl)-N-(6-((6-cyclopropylimidazo[1,2-a]pyridin-2-yl)methoxy)pyrimidin-4-yl)-5-methyl-7-(1-methylcyclopropyl)isoquinolin-1-amine] |
| 0.001 to 0.01 | Cc1cc2c(N)nccc2c(C)c1CNc1cc(OCc2cn3cc(C4CC4)cc(-n4c(C)nnc4C)c3n2)ncn1 [Example 257, 6-(((6-((6-cyclopropyl-8-(3,5-dimethyl-4H-1,2,4-triazol-4-yl)imidazo[1,2-a]pyridin-2-yl)methoxy)pyrimidin-4-yl)amino)methyl)-5,7-dimethylisoquinolin-1-amine] |
| 0.001 to 0.01 | Cc1cc2c(N)nccc2c(C)c1CNc1nccc2cn(Cc3ccc(Cn4cccn4)cc3)nc12 [Example 260, 6-(((2-(4-((1H-pyrazol-1-yl)methyl)benzyl)-2H-pyrazolo[3,4-c]pyridin-7-yl)amino)methyl)-5,7-dimethylisoquinolin-1-amine] |
| 0.001 to 0.01 | Cc1cc2c(N)nccc2c(C)c1CNc1nccc2cn(Cc3nc4ccc(C5CC5)cn4n3)nc12 [Example 263, 6-(((2-((6-cyclopropyl-[1,2,4]triazolo[1,5-a]pyridin-2-yl)methyl)-2H-pyrazolo[3,4-c]pyridin-7-yl)amino)methyl)-5,7-dimethylisoquinolin-1-amine] |
| < 0.001 | Cc1cc2c(N)nccc2c(C)c1CNc1nccc2cn(Cc3cn4cc(C5CC5)cnc4n3)nc12 [Example 264, 6-(((2-((6-cyclopropylimidazo[1,2-a]pyrimidin-2-yl)methyl)-2H-pyrazolo[3,4-c]pyridin-7-yl)amino)methyl)-5,7-dimethylisoquinolin-1-amine] |
| 0.1 to 1 | Cc1cc2c(N)nccc2c(C)c1CNc1nccc2c1cnn2Cc1cn2cc(C3CC3)ccc2n1 [Example 266] |
| 0.01 to 0.1 | Cc1cc2c(N)nccc2c(C)c1CNc1cc2nn(Cc3cn4cc(C5CC5)ccc4n3)cc2cn1 [Example 269, 6-(((2-((6-cyclopropylimidazo[1,2-a]pyridin-2-yl)methyl)-2H-pyrazolo[4,3-c]pyridin-6-yl)amino)methyl)-5,7-dimethylisoquinolin-1-amine] |
| 0.001 to 0.01 | CCOC(=O)CCc1cc(C2CC2)cc2cc(COc3cc(NCc4c(C)cc5c(N)nccc5c4C)ncn3)nn12 [Example 270, ethyl 3-(2-(((6-(((1-amino-5,7-dimethylisoquinolin-6-yl)methyl)amino)pyrimidin-4-yl)oxy)methyl)-5-cyclopropylpyrazolo[1,5-a]pyridin-7-yl)propanoate] |
| < 0.001 | Cc1cc2c(N)nccc2c(C)c1CNc1nccc2cn(Cc3cn4cc(C5CC5)ccc4n3)nc12 [Example 271, 6-(((2-((6-cyclopropylimidazo[1,2-a]pyridin-2-yl)methyl)-2H-pyrazolo[3,4-c]pyridin-7-yl)amino)methyl)-5,7-dimethylisoquinolin-1-amine] |
| 0.001 to 0.01 | CCOC(=O)CCc1nc(NCc2c(C)cc3c(N)nccc3c2C)cc(OCc2cn3cc(C4CC4)ccc3n2)n1 [Example 274, ethyl 3-(4-(((1-amino-5,7-dimethylisoquinolin-6-yl)methyl)amino)-6-((6-cyclopropylimidazo[1,2-a]pyridin-2-yl)methoxy)pyrimidin-2-yl)propanoate] |
| < 0.001 | Cc1cc2c(N)nccc2c(C)c1CNc1cc(OC(C)c2ccc(Cn3cccn3)cc2)cnn1 (stereo not drawn) [Example 275, 6-(((5-(1-(4-((1H-pyrazol-1-yl)methyl)phenyl)ethoxy)pyridazin-3-yl)amino)methyl)-5,7-dimethylisoquinolin-1-amine] |
| 0.001 to 0.01 | Cc1cc2c(N)nccc2c(C)c1CNc1cc(OCc2ccc(CCn3cccn3)cc2)cnn1 [Example 278, 6-(((5-((4-(2-(1H-pyrazol-1-yl)ethyl)benzyl)oxy)pyridazin-3-yl)amino)methyl)-5,7-dimethylisoquinolin-1-amine] |
| 0.001 to 0.01 | Cc1cc2c(N)nccc2c(C)c1CNc1ccnc(OCc2cn3cc(C4CC4)ccc3n2)c1 [Example 279, 6-(((2-((6-cyclopropylimidazo[1,2-a]pyridin-2-yl)methoxy)pyridin-4-yl)amino)methyl)-5,7-dimethylisoquinolin-1-amine] |
| 0.1 to 1 | Cc1cc2c(N)nccc2c(C)c1CNc1cc(OCc2nc3cc(C4CC4)ccc3s2)ncn1 [Example 282, 6-(((6-((5-cyclopropylbenzo[d]thiazol-2-yl)methoxy)pyrimidin-4-yl)amino)methyl)-5,7-dimethylisoquinolin-1-amine] |
| 0.001 to 0.01 | Cc1cc2c(N)nccc2c(C)c1CNc1cc2c(cn1)c(F)cn2Cc1cc2cc(C3CC3)cnc2s1 [Example 286, 6-(((1-((5-cyclopropylthieno[2,3-b]pyridin-2-yl)methyl)-3-fluoro-1H-pyrrolo[3,2-c]pyridin-6-yl)amino)methyl)-5,7-dimethylisoquinolin-1-amine] |
| 0.01 to 0.1 | Cc1cc2c(N)nccc2c(C)c1CNc1nccnc1OCc1cn2cc(C3CC3)ccc2n1 [Example 287, 6-(((3-((6-cyclopropylimidazo[1,2-a]pyridin-2-yl)methoxy)pyrazin-2-yl)amino)methyl)-5,7-dimethylisoquinolin-1-amine] |
| 0.1 to 1 | Cc1cc2c(N)nccc2c(C)c1CNc1ncccc1OCc1cn2cc(C3CC3)ccc2n1 [Example 289, 6-(((3-((6-cyclopropylimidazo[1,2-a]pyridin-2-yl)methoxy)pyridin-2-yl)amino)methyl)-5,7-dimethylisoquinolin-1-amine] |
| 0.001 to 0.01 | CCOC(=O)CCc1nc(NCc2c(C)cc3c(N)nccc3c2C)cc(OCc2cn3cc(C4CC4)cnc3n2)n1 [Example 291, ethyl 3-(4-(((1-amino-5,7-dimethylisoquinolin-6-yl)methyl)amino)-6-((6-cyclopropylimidazo[1,2-a]pyrimidin-2-yl)methoxy)pyrimidin-2-yl)propanoate] |
| 0.01 to 0.1 | CCOC(=O)CCc1nc(NCc2c(C)cc3c(N)nccc3c2C)cc(OCc2nc3ccc(C4CC4)cn3n2)n1 [Example 292, ethyl 3-(4-(((1-amino-5,7-dimethylisoquinolin-6-yl)methyl)amino)-6-((6-cyclopropyl-[1,2,4]triazolo[1,5-a]pyridin-2-yl)methoxy)pyrimidin-2-yl)propanoate] |
